# Test results published in the supplement of paper PMC3974653.
# Structures can show the parent of a compound that is named as a salt.
# Test system: MTT (mouse pheochromocytoma)
# Test: IC50 of cell viability (ATP content)
# Details: (24 or 48 h)
# In short: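 MTT mouse pheochromocytoma cells in white 1536-well plates were treated for 24 or 48 hrs with library compounds at 8 final concentrations from 0.5 nM to 46 µM. ATP content was measured with CellTiter-Glo luminescence, using positive-control wells as 100% and DMSO wells as 0%. IC50 came from a four-parameter logistic fit.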
row,SMILES,IC50 of cell viability
1,O=C(OCCN1CCCCC1)C(O)(c1ccccc1)c1ccccc1 [PIPETHANATE HYDROCHLORIDE],> 46 µM
2,C=CC(N)CCC(=O)O (configuration not stated) [VIGABATRIN],> 46 µM
3,C[C@H]1[C@H](O)[C@@H](C)/C=C/C=C/CC/C=C/C=C/C=C/C=C/[C@H](O[C@@H]2O[C@H](C)[C@@H](O)[C@H](N)[C@@H]2O)C[C@@H]2O[C@](O)(C[C@@H](O)[C@H](O)CC[C@@H](O)C[C@@H](O)C[C@@H](O)CC(=O)O[C@H]1C)C[C@H](O)[C@H]2C(=O)O [Nystatin],> 46 µM
4,CC(N/C(=N\C#N)Nc1ccncc1)C(C)(C)C (configuration not stated) [PINACIDIL],> 46 µM
5,C#CCN(C)[C@@H](C)Cc1ccccc1 [Selegiline hydrochloride],> 46 µM
6,"C=CC(=O)NCNC(=O)C=C [N,N'-Methylenebis(acrylamide)]",> 46 µM
7,CCC1(CC2=C(O1)C=CC=C2)\C3=N\CCN3 (configuration not stated) [EFAROXAN],> 46 µM
8,C[C@]12CCC(=O)C[C@@H]1CC[C@@H]1[C@@H]2CC[C@]2(C)[C@@H](O)CC[C@@H]12 [5alpha-Androstan-17beta-ol-3-one],> 46 µM
9,O=C(Nc1ccc(Br)cc1)c1cc(Br)cc(Br)c1O [TRIBROMSALAN],> 46 µM
10,C#Cc1cccc(Nc2ncnc3cc(OCCOC)c(OCCOC)cc23)c1 [Erlotinib],> 46 µM
11,CC1=C(/C=C/C(C)=C/C=C/C(C)=C/C(=O)Oc2c(C)c(C)c3c(c2C)CC[C@@](C)(CCC[C@H](C)CCC[C@H](C)CCCC(C)C)O3)C(C)(C)CCC1 [TOCORETINATE],> 46 µM
12,C=C1CC[C@@]2(O)[C@H]3Cc4ccc(O)c5c4[C@@]2(CCN3CC2CC2)[C@H]1O5 [NALMEFENE HYDROCHLORIDE],> 46 µM
13,CCC1(c2ccccc2)CCC(=O)NC1=O (configuration not stated) [Glutethimide],> 46 µM
14,CCN(CC)c1ccc(/N=N/c2ccc([S+](=O)([O-])N(C)C)cc2)c([S+](=O)([O-])NCC[n+]2ccccc2)c1 [ORANGE OIL],> 46 µM
15,C=CCN(C1=NCCN1)c1c(Cl)cccc1Cl [Alinidine],> 46 µM
16,COC(=O)C(Cl)C(=O)OC [Dimethyl chloromalonate],> 46 µM
17,CN1CCN=C(c2ccccc2)c2cc(Cl)ccc21 [Medazepam],> 46 µM
18,CCCCCCCCCCCCCCCC(=O)NCCO [Palmitoylethanolamide],> 46 µM
19,CCCCC[C@H](O)/C=C/[C@@H]1[C@@H](C/C=C\CCCC(=O)O)[C@@H](O)C[C@H]1O [Dinoprost tromethamine],> 46 µM
20,COc1ccc(CC(C)NCC(O)c2ccc(O)c(NC=O)c2)cc1 (configuration not stated) [ARFORMOTEROL TARTRATE],> 46 µM
21,C#CCOC(C(=O)OCCN(C)C)(c1ccccc1)c1ccccc1 [PARGEVERINUM],> 46 µM
22,Cc1ncsc1CCCl [CHLORMETHIAZOLE],> 46 µM
23,CC(=O)[C@H]1CC[C@H]2[C@@H]3CC[C@H]4C[C@H](O)CC[C@]4(C)[C@H]3CC[C@]12C [5-alpha-PREGNAN-3-alpha-OL-20-ONE],> 46 µM
24,O=C(NNC[S+](=O)([O-])O)c1ccncc1 [ISONIAZID SODIUM METHANESULFONATE],> 46 µM
25,CCc1cc(Cl)c(OC)c(C(=O)NC[C@@H]2CCCN2CC)c1O [Eticlopride hydrochloride],> 46 µM
26,Nc1ccc([As](=O)(O)O)cc1 [Arsanilic acid],> 46 µM
27,CCCCCCCCCCCCCCCCCC(=O)OCC(C)O (configuration not stated) [PROPYLENE GLYCOL STEARATE SE],> 46 µM

# Next, values leading:
row,IC50 of cell viability,SMILES
1,> 46 µM,CCCc1nc2c(C)cc(-c3nc4ccccc4n3C)cc2n1Cc1ccc(-c2ccccc2C(=O)O)cc1 [TELMISARTAN]
2,> 46 µM,Cc1cc(C(=O)NNCc2ccccc2)no1 [Isocarboxazid]
3,> 46 µM,Cc1nc(N[S+](=O)([O-])c2ccc(N)cc2)nc(C)c1Br [SULFABROMOMETHAZINE SODIUM]
4,> 46 µM,O=C(O)CCC(=O)c1ccc(-c2ccccc2)cc1 [Fenbufen]
5,> 46 µM,"O=C(O)[C@@H](O)[C@@H](O)[C@H](O)[C@H](O)CO [GLUCONIC ACID, BARIUM SALT]"
6,> 46 µM,COc1ccc(/C=C/C(=O)O)cc1 [DIETHANOLAMINE METHOXYCINNAMATE]
7,> 46 µM,O=C1CC[C@H](C(=O)N[C@@H]2C[C@H]2c2ccccc2)N1 [ROLICYPRINUM]
8,> 46 µM,"Cc1cc(Nc2ccccc2C(=O)O)ccc1Cl [Benzoic acid, 2-[(4-chloro-3-methylphenyl)amino]-]"
9,> 46 µM,O=C1CCC(=O)N1CO [N-HYDROXYMETHYLSUCCINIMIDE]
10,> 46 µM,CC(C)(C)c1nnc(N[S+](=O)([O-])c2ccccc2)s1 [GLYBUZOLE]
11,> 46 µM,COc1ccc2[nH]cc(CCNC(C)=O)c2c1 [MELATONIN]
12,> 46 µM,C=CCCCCCCCCC(=O)OC [METHYL UNDECENOATE]
13,> 46 µM,CCC1Nc2cc(Cl)c([S+](N)(=O)[O-])cc2[S+](=O)([O-])N1 (configuration not stated) [Ethiazide]
14,> 46 µM,CCOC(=O)O[C@@H](C)OC(=O)[C@@H]1[N@]2[C@@H](SC1(C)C)[C@H](NC(=O)[C@@H](N)C3=CC=CC=C3)C2=O [Bacampicillin hydrochloride]
15,> 46 µM,CC(C)C[C@@H](NC(=O)[C@@H](COC(C)(C)C)NC(=O)[C@H](Cc1ccc(O)cc1)NC(=O)[C@@H](CO)NC(=O)[C@@H](Cc1c[nH]c2ccccc12)NC(=O)[C@@H](Cc1c[nH]cn1)NC(=O)[C@@H]1CCC(=O)N1)C(=O)N[C@H](CCCNC(=N)N)C(=O)N1CCC[C@H]1C(=O)NNC(N)=O [GOSERELIN ACETATE]
16,> 46 µM,C#C[C@]1(O)CC[C@H]2[C@@H]3CCC4=CC(=O)CC[C@@H]4[C@H]3CC[C@@]21CC [Levonorgestrel]
17,> 46 µM,CC[C@](C)(CN(C)C)OC(=O)c1ccccc1 [Amyleine hydrochloride]
18,> 46 µM,"C[C@H]\1C[C@H]2[C@H]3CC[C@](O)(C(=O)CO)[C@]3(C)C[C@@H](O)[C@@H]2[C@]4(C)\C=C/C(=O)/C=C14 [Methylprednisolone, 6-alpha]"
19,> 46 µM,COc1cc2ncnc(Nc3ccc(F)c(Cl)c3)c2cc1OCCCN1CCOCC1 [Gefitinib]
20,> 46 µM,CC(C)Cc1ccc([C@H](C)C(=O)O)cc1 [Dexibuprofen]

row,IC50 of cell viability,SMILES
1,> 46 µM,COc1ccccc1N1CCN(CC(O)COc2cccc3ccccc23)CC1 (configuration not stated) [NAFTOPIDIL]
2,> 46 µM,O=C(COCCOCCOCC(=O)Nc1c(I)cc(I)c(C(=O)O)c1I)Nc1c(I)cc(I)c(C(=O)O)c1I [Biliscopin]
3,> 46 µM,CN(Cc1ccc(C(C)(C)C)cc1)Cc1cccc2ccccc12 [Butenafina]
4,> 46 µM,Nc1nc(N)c2nc(CNc3ccc(C(=O)NC(CCC(=O)O)C(=O)O)cc3)cnc2n1 (configuration not stated) [AMINOPTERIN]
5,> 46 µM,"CC(O)COc1ccccc1 (configuration not stated) [2-Propanol, 1-phenoxy-]"
6,> 46 µM,CC1(COc2ccc(CC3SC(=O)NC3=O)cc2)CCCCC1 (configuration not stated) [Ciglitizone]
7,> 46 µM,O=C1OC(OC(=O)c2cccnc2Nc2cccc(C(F)(F)F)c2)c2ccccc21 (configuration not stated) [TALNIFLUMATUM]
8,> 46 µM,CC(C)(Oc1ccc(Cl)cc1)C(=O)O [Clofibric_acid]
9,> 46 µM,C[C@H](CN1CCCC1)C(=O)c1ccc(C(F)(F)F)cc1 [LANPERISONE HYDROCHLORIDE]
10,> 46 µM,C=CCN1CCc2nc(N)sc2CC1 [B-HT 920]
11,> 46 µM,COC1=CC(=C2C(=O)[C@]\3(OC2=C1Cl)[C@H](C)CC(=O)\C=C3OC)OC [Griseofulvin]
12,> 46 µM,COc1nccnc1N[S+](=O)([O-])c1ccc(N)cc1 [Sulfalene]
13,> 46 µM,[Na+].CN(C[S]([O-])(=O)=O)\C1=C(/C)N(C)N(C1=O)C2=CC=CC=C2 [Dipyrone]
14,> 46 µM,CC(C)n1nc(-c2cc3cc(O)ccc3[nH]2)c2c(N)ncnc21 [pp242]
15,> 46 µM,CCCCC(C)(O)C/C=C/[C@H]1[C@H](O)CC(=O)[C@@H]1CCCCCCC(=O)OC (some centres not stated) [Misoprostol]
16,> 46 µM,O=C1O[C@H]2[C@@H](OC(O)[C@@H]2O)[C@H]1O (some centres not stated) [Glucuronolactone]
17,> 46 µM,CC(C)NCC(O)c1ccc(N[S+](C)(=O)[O-])cc1.Cl (configuration not stated) [DEXSOTALOLUM]
18,> 46 µM,Cc1cc2nc3ccc(N(C)C)cc3[s+]c2cc1N [Toluidine blue]
19,> 46 µM,CCCCC/C=C\C/C=C\CCCCCCCC(=O)O [Linoleic acid]
20,> 46 µM,CCN(CC)CCNC(=O)COc1ccc(Cl)cc1 [CLOFEXAMIDUM]
